Test results: PMC12120022, “Discovery and chemical optimisation of a potent, Bi-cyclic antimicrobial inhibitor of Escherichia coli PBP3” (Communications Biology, 2025)
In brackets after ≈: the same amount, converted by molar mass. *1 amine or outer side, *2 acyl side, *3 side chain or, on linkers, in order; H or OH if unused. Where a SMILES comes first, the peptide text is derived from it. Bridges are numbered along the chain shown (N, C = ends). [ ]: non-standard residue; d: D form. TATA = O=C(CC[*:1])N1CN(C(=O)CC[*:2])CN(C(=O)CC[*:3])C1; Trp(6-Cl) = N[C@@H](Cc1c[nH]c2cc(Cl)ccc12)C(=O)O; hArg = N=C(N)NCCCC[C@H](N)C(=O)O

Experiments:
[1] = Mouse blood stability; type: in vitro ADME, CD-1 mice; conditions: CD-1, mouse, whole blood (EDTA as anticoagulant), 37 °C, SAR peptides, read-out: Blood stability (t1/2) (converted)
Method: Stability assays were performed using freshly collected matrices from CD-1 mice, with anticoagulant as stated per dataset. Compound stocks in DMSO were tested at 5 μM final concentration (0.5% (v/v) DMSO). Compounds were incubated in blood or plasma at 37 °C for 24 h, with sampling at 0, 1, 2, 4, 6 and 24 h. Samples were prepared via protein precipitation using organic solvent containing internal standard, and analyzed by LC-MS/MS. Compound remaining was quantified based on the ratio of analyte to internal standard, and the half-life (t1/2) was calculated from a log linear plot of % remaining versus time.

[2] = target: T1, EcPBP3 (Escherichia coli, UniProt P0AD68); assay: SPR binding assay on immobilised EcPBP3; conditions: 37 °C, kinetic fitting; NB = no binding at 2500 nM (Tables S-4, S-5) or 5000 nM (Table 1); read-out: Kd (nM) by SPR (geomean)
T1 construct: For assays, selections and SPR a construct with residues 60–588 which has the N-terminal domain, but not the transmembrane helix, was used; made in house
T1 sequence (P0AD68 60-588): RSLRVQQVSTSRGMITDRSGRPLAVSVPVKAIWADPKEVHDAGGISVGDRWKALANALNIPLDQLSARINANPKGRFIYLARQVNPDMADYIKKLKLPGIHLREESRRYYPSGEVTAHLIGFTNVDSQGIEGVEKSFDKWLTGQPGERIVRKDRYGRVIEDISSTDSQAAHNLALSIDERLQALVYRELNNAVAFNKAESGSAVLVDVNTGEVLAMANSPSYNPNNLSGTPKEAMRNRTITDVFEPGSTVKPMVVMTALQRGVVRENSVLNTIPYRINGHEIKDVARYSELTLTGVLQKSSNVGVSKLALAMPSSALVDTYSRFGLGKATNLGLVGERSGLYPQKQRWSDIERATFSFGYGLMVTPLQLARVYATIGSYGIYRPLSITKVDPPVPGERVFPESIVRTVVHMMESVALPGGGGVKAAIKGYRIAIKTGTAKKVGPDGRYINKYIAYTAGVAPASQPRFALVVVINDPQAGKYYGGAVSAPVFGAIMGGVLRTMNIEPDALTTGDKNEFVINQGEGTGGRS
In short: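 EcPBP3 amine-coupled to CM5 chip (1500-2500 RU); compounds injected at 37 °C in 10 mM HEPES pH 8.0, 200 mM NaCl, 0.05% Tween-20, 2% DMSO, 50 μL min^–1, 150 s contact, 2400 s dissociation. Double-referenced sensorgrams kinetically fitted for Kd; geometric mean of ≥2 biological replicates.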

[3] = test system: E. coli GKCW102 (EcPore); conditions: caMHB; biological replicates or their range
Method: To evaluate the engagement of EcPBP3 by a bicyclic peptide in whole cells lacking the outer membrane permeability barrier, peptides were screened in ‘hyperporinated’ E. coli strains in which a constitutively open FhuA pore (FhuAΔC/Δ4L, lacking N-terminal cork domain and external loops) was chromosomally expressed under control of an arabinose-inducible promoter.
(§1) Minimal inhibition concentration (MIC) assays were performed in accordance with CLSI standards, using cation-adjusted Mueller Hinton broth (caMHB; Sigma Aldrich) unless otherwise specified. Induction of pore expression in hyperporinated strains E. coli GKCW101 and GKCW102 was performed by addition of 0.1% (w/v) L-arabinose to cultures at OD600 ~ 0.3, with caMHB as the culture medium.

[4] = test system: Acinetobacter baumannii AR0275; assay: MIC; type: cell-based; conditions: Acinetobacter baumannii, AR0275; caMHB; replicates listed
Method: as §1

[5] = test system: Acinetobacter baumannii NCTC 12156; assay: MIC; type: cell-based; conditions: Acinetobacter baumannii, NCTC12156; caMHB; replicates listed
Method: as §1

[6] = test system: Citrobacter freundii AR0116; assay: MIC; type: cell-based; conditions: Citrobacter freundii, AR0116; caMHB; replicates listed
Method: as §1

[7] = test system: Enterobacter cloacae AR0038; assay: MIC; type: cell-based; conditions: Enterobacter cloacae, AR0038; caMHB; replicates listed
Method: as §1

[8] = test system: Enterobacter cloacae KPC114; assay: MIC; type: cell-based; conditions: Enterobacter cloacae, KPC114, read-out: MIC Enterobacter cloacae KPC114
Method: as §1

[9] = test system: Escherichia coli ATCC BAA-2469; assay: MIC; type: cell-based; conditions: Escherichia coli, ATCCBAA2469; caMHB; replicates listed
Method: as §1

[10] = test system: Proteus mirabilis AR159; assay: MIC; type: cell-based; conditions: Proteus mirabilis, AR159; caMHB; replicates listed
Method: as §1

[11] = target: T1, EcPBP3; assay: Fluorescence polarisation competition assay with BOCILLIN-FL as tracer; type: binding; conditions: competition format, NB, non-binder (100 μM top concentration)
Method: Binding of output peptides to EcPBP3 was evaluated using a fluorescence polarisation (FP) assay.
[…] 10 µL of protein (9.4 nM) was mixed with either 5 µL of peptide or 5 µL of buffer and then the assay was initiated by the addition of 10 µL of tracer (1 nM) (final volume 25 µL), in a black 384 low bind, low volume plate (Corning). The buffer was 10 mM HEPES (Sigma), 2% (v/v) glycerol (Sigma), 300 mM NaCl (Sigma), adjusted to pH 8. The plate was incubated for 1 h at 25 °C and then read in a PHERAstar FS (BMG) using with an “FP 485 520 520” optic module (excitation 485 nm, emission 520 nm). The gain was determined immediately prior to the read on a tracer-only well.
Dotmatics (Dotmatics) workflows performing the above calculations were used to process the data. Values quoted are the geometric means of at least 2 repeats.

SMILES: CC(=O)N[C@@H](C)C(=O)N[C@H]1CSCCC(=O)N2CN3CN(C2)C(=O)CCSC[C@H](NC(=O)[C@H](CCCCNC(=N)N)NC(=O)[C@@H]2CCCN2C(=O)[C@H](Cc2ccccc2)NC(=O)[C@H](CO)NC1=O)C(=O)N1CCC[C@H]1C(=O)N[C@@H](Cc1c[nH]c2ccccc12)C(=O)N[C@@H](C(C)C)C(=O)N[C@@H](CCC(=O)O)C(=O)NCC(=O)N[C@H](C(=O)N[C@@H](C)C(N)=O)CSCCC3=O [Peptide 73]
- half-life at 5 μM [1]: 14.1 h

SMILES: CC(C)[C@@H]1NC(=O)[C@H](Cc2c[nH]c3ccccc23)NC(=O)[C@@H]2CCCN2C(=O)[C@@H]2CSCCC(=O)N3CN(CN(C3)C(=O)CCSC[C@H](N)C(=O)N[C@@H](CO)C(=O)N[C@@H](Cc3ccccc3)C(=O)N3CCC[C@H]3C(=O)N[C@@H](CCCCNC(=N)N)C(=O)N2)C(=O)CCSC[C@@H](C(N)=O)NC(=O)CNC(=O)[C@H](CCC(=O)O)NC1=O [Peptide 72, CSFP[HArg]CPWVEGC] (HELM PEPTIDE1{C.S.F.P.[N=C(N)NCCCC[C@H](N[*:1])C(=O)[*:2]].C.P.W.V.E.G.C.[am]}|CHEM1{[O=C(CC[*:1])N1CN(C(=O)CC[*:2])CN(C(=O)CC[*:3])C1]}$PEPTIDE1,CHEM1,1:R3-1:R1|PEPTIDE1,CHEM1,6:R3-1:R2|PEPTIDE1,CHEM1,12:R3-1:R3$$$V2.0)
- half-life at 5 μM [1]: 3 h

SMILES: CC(=O)N[C@H]1CSCCC(=O)N2CN3CN(C2)C(=O)CCSC[C@H](NC(=O)[C@H](CCCCNC(=N)N)NC(=O)[C@@H]2CCCN2C(=O)[C@H](Cc2ccccc2)NC(=O)[C@H](CO)NC1=O)C(=O)N1CCC[C@H]1C(=O)N[C@@H](Cc1c[nH]c2ccccc12)C(=O)N[C@@H](C(C)C)C(=O)N[C@@H](CCC(=O)O)C(=O)NCC(=O)N[C@H](C(=O)N[C@@H](C)C(N)=O)CSCCC3=O [Peptide 74] (HELM PEPTIDE1{[ac].C.S.F.P.[N=C(N)NCCCC[C@H](N[*:1])C(=O)[*:2]].C.P.W.V.E.G.C.A.[am]}|CHEM1{[O=C(CC[*:1])N1CN(C(=O)CC[*:2])CN(C(=O)CC[*:3])C1]}$PEPTIDE1,CHEM1,2:R3-1:R1|PEPTIDE1,CHEM1,7:R3-1:R2|PEPTIDE1,CHEM1,13:R3-1:R3$$$V2.0)
- half-life at 5 μM [1]: 17.7 h

SMILES: CC(=O)N[C@@H](C)C(=O)N[C@H]1CSCCC(=O)N2CN3CN(C2)C(=O)CCSC[C@H](NC(=O)[C@H](CCCCNC(=N)N)NC(=O)[C@@H]2CCCN2C(=O)[C@H](Cc2ccccc2)NC(=O)[C@H](CO)NC1=O)C(=O)N1CCC[C@H]1C(=O)N[C@@H](Cc1c[nH]c2cc(Cl)ccc12)C(=O)N[C@@H](C(C)C)C(=O)N[C@@H](CCC(=O)O)C(=O)NCC(=O)N[C@H](C(=O)N[C@@H](C)C(N)=O)CSCCC3=O [Peptide 75, [-Ac]ACSFP[HArg]CP[6ClTrp]VEGCA] (Ac-ACSFP[hArg]CP[Trp(6-Cl)]VEGCA-NH2; linker 2-7-13 via TATA)
- half-life at 5 μM [1]: 11.4 h

SMILES: C[C@H](N)C(=O)N[C@H]1CSCCC(=O)N2CN3CN(C2)C(=O)CCSC[C@H](NC(=O)[C@H](CCCCN)NC(=O)[C@@H]2CCCN2C(=O)[C@H](Cc2ccccc2)NC(=O)[C@H](CO)NC1=O)C(=O)N1CCC[C@H]1C(=O)N[C@@H](Cc1c[nH]c2ccccc12)C(=O)N[C@H](C)C(=O)N[C@@H](CCC(=O)O)C(=O)NCC(=O)N[C@H](C(=O)N[C@@H](C)C(N)=O)CSCCC3=O [Peptide 69] (HELM PEPTIDE1{A.C.S.F.P.K.C.P.W.[dA].E.G.C.A.[am]}|CHEM1{[O=C(CC[*:1])N1CN(C(=O)CC[*:2])CN(C(=O)CC[*:3])C1]}$PEPTIDE1,CHEM1,2:R3-1:R1|PEPTIDE1,CHEM1,7:R3-1:R2|PEPTIDE1,CHEM1,13:R3-1:R3$$$V2.0)
- Kd [2]: > 2500 nM
- MIC E. coli GKCW102 (EcPore) [3]: > 16 µg/mL

SMILES: CC(C)[C@@H]1NC(=O)[C@H](Cc2c[nH]c3ccccc23)NC(=O)[C@@H]2CCCN2C(=O)[C@@H]2CSCCC(=O)N3CN(CN(C3)C(=O)CCSC[C@H](N)C(=O)N[C@@H](CO)C(=O)N[C@@H](Cc3ccccc3)C(=O)N3CCC[C@H]3C(=O)N[C@@H](CCCCNC(=N)N)C(=O)N2)C(=O)CCSC[C@@H](C(=O)N[C@@H](C)C(N)=O)NC(=O)CNC(=O)[C@H](CCC(=O)O)NC1=O [Peptide 71] (HELM PEPTIDE1{C.S.F.P.[N=C(N)NCCCC[C@H](N[*:1])C(=O)[*:2]].C.P.W.V.E.G.C.A.[am]}|CHEM1{[O=C(CC[*:1])N1CN(C(=O)CC[*:2])CN(C(=O)CC[*:3])C1]}$PEPTIDE1,CHEM1,1:R3-1:R1|PEPTIDE1,CHEM1,6:R3-1:R2|PEPTIDE1,CHEM1,12:R3-1:R3$$$V2.0)
- half-life at 5 μM [1]: 5.7 h

SMILES: C[C@@H](O)[C@H]1C(=O)N2C(C(=O)O)=C(S[C@@H]3CN[C@H](C(=O)N(C)C)C3)[C@H](C)[C@H]12 [Meropenem, reference compound]
- MIC [4]: > 2 µg/mL
- MIC [5]: 1.1 µg/mL (≈ 2.87 µM)
- MIC [6]: > 2 µg/mL
- MIC [7]: > 2 µg/mL
- MIC [8]: > 2 µg/mL
- MIC [9]: > 2 µg/mL
- MIC [10]: > 2 µg/mL

SMILES: C[C@H](N)C(=O)N[C@H]1CSCCC(=O)N2CN3CN(C2)C(=O)CCSC[C@H](NC(=O)CNC(=O)[C@H](Cc2ccccc2)NC(=O)[C@H]([C@@H](C)O)NC(=O)[C@H](CCCNC(=N)N)NC1=O)C(=O)N[C@@H](Cc1c[nH]c2ccccc12)C(=O)N[C@@H](Cc1c[nH]c2ccccc12)C(=O)N[C@@H](CCC(=O)O)C(=O)NCC(=O)N[C@H](C(=O)N[C@@H](C)C(N)=O)CSCCC3=O [Peptide 5]
- IC50 (nM) by fluorescence polarisation with Bocillin FL as tracer, Geometric mean (Lower 95% CI of geo. Mean; Upper 95% CI of geo. Mean, n=number of values) [11]: showed binding to EcPBP3
- IC50 ([11]; read-out: IC50 (nM) by fluorescence polarisation with Bocillin FL as tracer, Geometric mean (Lower 95% CI of geo. Mean; Upper 95% CI of geo. Mean, n=number of values)): 1550 nM
- Kd [2]: 369 nM
- MIC E. coli GKCW102 (EcPore) [3]: limited activity
